From patent US20200397913A1, “AXL-SPECIFIC ANTIBODY-DRUG CONJUGATES FOR CANCER TREATMENT” (GENMAB A/S, priority 2015, published 2020)

Assays:
[1] = system: LU0858 tumors; assay: Erlotinib-resistant NSCLC PDX model LU0858; assay type: in vivo, BALB/c nude mice
[2] = system: SKMEL28 cells; assay: Melanoma cell line viability assay (CellTiter-Glo); assay type: cell-based, human; details: ADC 1×10^−4 to 10 μg/mL, 5 days
[3] = system: A431 tumors; assay: Therapeutic A431 xenograft model; assay type: in vivo, SCID mice; details: 3 mg/kg intraperitoneally, model produces high levels of Gas6
Protocol: Tumor induction was performed by subcutaneous injection of 5×10^6 A431 or LCLC-103H tumor cells (both obtained from Leibniz-Institut—Deutsche Sammlung von Mikroorganismen and Zellkulturen GmbH (DSMZ)) in 200 μL PBS in the right flank of female SCID mice. Treatment was started 14-21 days after tumor cell inoculation, when the average tumor size was >100-200 mm^3 and distinct tumor growth was observed. Mice received a single injection or a total of 4 biweekly intraperitoneal injections with IgG1-AXL-vcMMAE ADCs or control antibody (unconjugated IgG1-b12), as indicated. Tumor volume was determined at least two times per week. Tumor volumes (mm^3) were calculated from caliper (PLEXX) measurements as: 0.52×(length)×(width)2.

[4] = system: COLO679 cells; assay: Melanoma cell line viability assay (CellTiter-Glo); assay type: cell-based, human; details: ADC 1×10^−4 to 10 μg/mL, 5 days

## IgG1-AXL-107-vcMMAE: IgG1-AXL-107 conjugated at cysteines to vcMMAE (mc-vc-PAB linker, MMAE)
[1]; LU0858, ADC 2 mg/kg day 0 and 7, alone or with erlotinib 50 mg/kg daily
  anti-tumor activity: had no effect on tumor growth
[1]; LU0858, ADC 4 mg/kg day 0 and 7, alone or with erlotinib 50 mg/kg daily
  anti-tumor activity: induced tumor growth inhibition
[2]
  sensitivity of the cell line to the substance: did not show changes in viability
[2]; listed as HuMax-AXL-ADC
  sensitivity of the cell line to the substance: Resistant
[3]
  anti-tumor activity: induced growth inhibition
[4]
  sensitivity of the cell line to the substance: did not show changes in viability
[4]; listed as HuMax-AXL-ADC
  sensitivity of the cell line to the substance: Resistant
